Test system: Male CD1 mice
Experiment: Passive avoidance test following ECS-induced amnesia
Format: in vivo
Settings: i.p., 30 minutes before training, retention assessed 24 hours later
Procedure: In order to assess the antiamnesic activity the passive avoidance test in mice was used.
Male CD1 mice (Charles River) weighting 25-26 g fed on a normal diet were used for the ECS-induced amnesia test.
The compounds were administered i.p.at doses equimolar to 9 and 0.9 mg/kg […]. The compounds were dissolved in saline.
The apparatus for passive avoidance conditioning was a black plastic chamber (42 x 42 cm, height 40 cm) provided with a floor constructed of metal rods that could be electrified. From the front wall extended a white runway, 30 cm long and 10 cm wide provided with side walls 12 cm high, which led into the box through a guillotine door.
30 minutes following treatment with the compounds, the animals were placed on the runway. After one minute of adaptation, the door was raised and the time employed by the animal to enter the darkened box with all four feet was recorded.
Upon entry, the guillotine door was lowered and three seconds thereafter the rods were electrified, 0.24 mA for 2 seconds.
The mouse was then removed from the chamber and immediately administered an electroshock delivered through spring clips attached to the ears (square wave, intensity 20 mA, amplitude 0.6 msec, duration 0.5 s, frequency 50 Hz).
Immediately thereafter the animal was placed in the housing cage. Retention was assessed 24 hours later by placing the animal on the runway and again evaluating the latency in entering the chamber, using an end-point of 300 seconds (Bammer, loc.cit.).
In each experiment, two groups of animals in addition to the treated ones were used, that were defined as follows: • (1) ceiling control animals (treated with placebo and not subjected to amnesia treatment) to ensure that these animals not treated with the amnesia agent remembered the task; • (2) base-line control animals (treated with placebo and subjected to amnesia treatment) to ensure that ECS produced amnesia in the animals not treated with the compounds of the present invention.
The sum ΣAij encompasses all the possible pairs obtained by combining each term Xi with each term Xj.

[1] = dose equimolar to 0.9 mg/kg PIRACETAM
[2] = dose equimolar to 9 mg/kg PIRACETAM

Structure (SMILES)	AR (percentage of amnesia reversal) [1]	AR (percentage of amnesia reversal) [2]
O=C(N[C@H]1CCNC1=O)c1cccc(C(F)(F)F)c1 [ST 835, (S)-3-(3-trifluoromethylbenzoylamino)-2-pyrrolidinone]	51%	58%
O=CN[C@H]1CCNC1=O [ST 879, (S)-3-(formylamino)-2-pyrrolidinone]	53%	9%
N[C@H]1CCNC1=O [ST 802, (S)-3-amino-2-pyrrolidinone, reference compound]	24%	–

Source: patent EP0519877B1, “3-Acylamino-2-pyrrolidinones as enhancers of the processes of learning and memory and pharmaceutical compositions containing same” (Sigma-Tau Industrie Farmaceutiche Riunite S.p.A., priority 1991, dated 1992)
